Measurements reported in patent publication US9963474B2, “Mitochondria-targeted dicarbonyl sequestering compounds” (MEDICAL RESEARCH COUNCIL, priority 2013, dated 2018).

Columns and labels:
[1] = Reaction rate with glyoxal (fluorometric kinetics); settings: 37° C., means±SE, n=3
Description: (§1) (A) The reactions between MitoG (100 μM) and 1,2-dicarbonyls (25 μM) at 37° C. were followed from the formation of the quinoxaline products at 345 nm. (B) Fluorimetric detection of the reaction between MitoG and methylglyoxal (40 μM each), and between MitoG and glyoxal (200 μM each) was observed by monitoring the quinoxaline products at excitation and emission wavelengths of 344 and 433 nm, respectively. The changes in fluorescence caused by MQE and QE formation was quantified from calibration curves constructed by plotting fluorescence (excitation and emission wavelengths of 344 and 433 nm, respectively) against known amounts of either quinoxaline and were linear up to at least 20 μM.
(§2) TPP-conjugated compounds were made up as 10 mM stock solutions in DMSO, flushed with argon and stored as aliquots at −20° C. […] The molar extinction coefficients were calculated from the absorbance at maximal absorption (λmax) for the compounds for solutions of known concentration. Reaction rates between MitoG and 1,2-dicarbonyls were determined from the initial linear slope over the first 30 s at the λmax for the formation of the relevant quinoxaline. Fluorescence spectra were obtained in 2.5 ml KCl buffer using a Shimadzu RF-301PC fluorimeter with slit widths of 3 nm. […]

[2] = Stability of compounds assessed by RP-HPLC; type: physicochemical
Description: RP-HPLC was performed using a Gilson 321 pump with a C18 column (Jupiter 300 Å, Phenomenex) with a Widepore C18 guard column (Phenomenex). Samples (1 ml) were injected through a 0.22 μm PVDF filter (Millex, Millipore). HPLC buffer A [0.1% TFA in water] and HPLC buffer B (90% acetonitrile and 0.1% TFA) were used and a gradient was run at 1 ml/min at room temperature as follows: 0-2 min—5% B; 2-17 min—5-100% B; 17-19 min—100% B; 19-22 min—100-5% B. Peaks were detected by absorbance at 220 nm (UV/Vis 151, Gilson) and by fluorescence (excitation and emission wavelengths of 344 and 433 nm; RF-10AXL, Shimadzu). Partition coefficients between PBS and octan-1-ol were determined as previously described.
The syntheses of MitoG, its predicted quinoxaline products upon reaction with methylglyoxal and glyoxal, and their deuterated versions are summarized in FIG. 2. As expected, the spectrum of MitoG was a summation of those of the phenylenediamine, hexyloxyphenylenediamine (HP), and a simple alkylTPP salt.
The expected products of the reaction of MitoG with methylglyoxal (MQE) and glyoxal (QE) were synthesized and have UV/Vis absorption spectra distinct from that of MitoG (FIG. 3B). Both QE and MQE were fluorescent, while MitoG was not (FIG. 3C). The three compounds were resolved by RP-HPLC (FIG. 3D) although the MQE regioisomers (MQE1, MQE2; FIG. 1B) were not distinguished. Both MQE and QE were stable after one week at 37° C. as assessed by RP-HPLC (data not shown). It was concluded that MitoG is sufficiently stable for biological experiments involving trapping of glyoxal and methylglyoxal within mitochondria in cells and in vivo, and the reaction products MQE and QE were both robustly stable for chemical isolation and subsequent LC-MS/MS analyses.

[3] = system: C2C12 cells; assay: Protection against dicarbonyl-induced cell death, C2C12, MTS assay; type: cell-based, mouse; settings: pre-treated 1 h, overnight
Description: Isolated RLM respiring on glutamate/malate were incubated with MitoG, methoxyphenylenediamine (MP) or butylTPP for 2 min, followed by 0.5 mM methylglyoxal or 5 mM glyoxal for 5 min. ADP was then added and the rate of oxygen consumption monitored at 37° C. (see FIGS. 12A & 12B). C2C12 cells were pre-treated with MitoG, methoxyphenylenediamine (MP) or butylTPP for 1 h before exposure to 1 mM methylglyoxal or 5 mM glyoxal (see FIGS. 12C & 12D). Following an overnight incubation, cell survival was determined using the MTS assay. Similar experiments were conducted in BAECs pre-treated with MitoG, MP or butylTPP. For all experiments, concentrations of methylglyoxal and glyoxal used were chosen based on results from studies conducted prior to the protection assays. In these prior studies, RLM or cells were exposed to a range of dicarbonyl concentrations, and the phosphorylating rates of respiration or cell survival were evaluated. The results of these earlier experiments are shown in insets, and dicarbonyl concentrations that had caused significant respiratory depression or cell death were chosen for use in the protection assays. Data for all groups were normalized against untreated controls. For RLM, the rate of respiration by untreated controls was taken to be 100%; for cells, cell survival of untreated controls was taken to be 100%. Results are expressed as mean±S.E. of three independent experiments. MitoG was protective against methylglyoxal-induced respiratory depression and both methylglyoxal- and glyoxal-induced cell death in C2C12 cells and BAECs. […] In FIG. 12 the symbols *, ** respectively indicate that P<0.05 or P<0.01 relative to dicarbonyl-only groups; and the symbols +, ++ respectively indicate that P<0.05 or P<0.01 relative to untreated controls.

[4] = Competitive rate experiment for methylglyoxal monitored by 1H NMR; settings: 0.12 mM, DMSO, 25° C.
[5] = Reaction rate with methylglyoxal (UV/Vis and fluorometric kinetics); settings: 37° C., means±SE, n=3
Description: as §1, §2

decomposition of dilute solutions, loss by 4 h ([2]; 37° C., 4 h): minimal loss
decomposition of dilute solutions, loss by 24 h ([2]; 37° C., 24 h): significant loss
duration of biological experiments for which sufficiently stable ([2]; dilute solutions, 37° C.): ~4 h
stability of stock solutions ([2]; storage at −20° C., RP-HPLC): stable
SMILES: Nc1ccc(OCCCCCC[P+](c2ccccc2)(c2ccccc2)c2ccccc2)cc1N [MitoG, (6-(3,4-Diaminophenoxy)hexyl)triphenylphosphonium chloride]
rate constant for reaction with glyoxal [1]: 0.6 ± 0.3 M⁻¹ s⁻¹
protection against methylglyoxal-induced cell death ([3]; C2C12, 1 mM methylglyoxal): protective
protection against glyoxal-induced cell death ([3]; C2C12, 5 mM glyoxal): protective
reactivity relative to o-phenylenediamine for methylglyoxal [4]: ~1.8 ×
rate constant for reaction with methylglyoxal [5]: 19 ± 1 M⁻¹ s⁻¹
